Laboratory results taken from the supplement of paper PMC10307832.

Columns and labels:
Assay in all cases: relative viability (nuclei count vs DMSO), 5 days (fraction); higher = more cells survive
[1] = compound: C1/C(=C\C2=CC=CS2)/C(=O)/C(=C/C3=CC=CS3)/C1
In short: (§1)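 Five library-drug doses, separated by factors of √10, were pinned into 1536-well plates holding lung cancer cell lines after an overnight stay at 37 °C. Cells were fixed, permeabilised and Hoechst-stained in one step after 5 days without medium change, then imaged at 4×. Viability compares treated-well with vehicle-well nuclei, counted in MetaXpress, as a median across plates. Passing plates had control CV below 25% and at least one doubling.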

TPCA-1 = compound: C1=CC(=CC=C1C2=CC(=C(S2)NC(=O)N)C(=O)N)F [TPCA-1]
In short: as §1

Lestaurtinib = compound: C[C@]12O[C@H](C[C@]1(O)CO)n1c3ccccc3c3c4c(c5c6ccccc6n2c5c31)CNC4=O [Lestaurtinib]
In short: as §1

TPCA-1 + Crizotinib = compound: C1=CC(=CC=C1C2=CC(=C(S2)NC(=O)N)C(=O)N)F [TPCA-1] + C[C@@H](Oc1cc(-c2cnn(C3CCNCC3)c2)cnc1N)c1c(Cl)ccc(F)c1Cl [Crizotinib] (partner 1 µM)
In short: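 Nuclei were stained with Hoechst during a one-step fixation (final 0.05% Triton X-100, 1% formaldehyde, 1 ug/ml Hoechst) carried out 5 days after dosing, then counted on 4× images. The cells, lung cancer lines in 1536-well plates, had been dosed by pin tool the day after seeding with one drug alone or a fixed anchor-drug dose plus five library-drug doses (not always all listed) in √10 steps. Relative viability is the nuclei count in treated wells divided by that in vehicle wells, and each value is the median of duplicate plates.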

| Cell Line | relative viability ([1]; 0.2 µM) | relative viability ([1]; 0.6325 µM) | relative viability ([1]; 2 µM) | relative viability ([1]; 6.325 µM) | relative viability ([1]; 20 µM) | relative viability (TPCA-1; 0.04 µM) | relative viability (TPCA-1; 0.1265 µM) | relative viability (TPCA-1; 0.4 µM) | relative viability (TPCA-1; 1.265 µM) | relative viability (TPCA-1; 4 µM) | relative viability (Lestaurtinib; 0.005 µM) | relative viability (Lestaurtinib; 0.01581 µM) | relative viability (Lestaurtinib; 0.05 µM) | relative viability (Lestaurtinib; 0.1581 µM) | relative viability (Lestaurtinib; 0.5 µM) | relative viability (TPCA-1 + Crizotinib; first compound 0.04 µM) | relative viability (TPCA-1 + Crizotinib; first compound 0.1265 µM) | relative viability (TPCA-1 + Crizotinib; first compound 0.4 µM) | relative viability (TPCA-1 + Crizotinib; first compound 1.265 µM) | relative viability (TPCA-1 + Crizotinib; first compound 4 µM) |
| --- | --- | --- | --- | --- | --- | --- | --- | --- | --- | --- | --- | --- | --- | --- | --- | --- | --- | --- | --- | --- |
| LOU-NH91 | 1.02 | 0.991 | 1.09 | 0.874 | 1.02 | 1.05 | 0.943 | 0.981 | 0.878 | 0.851 | 0.946 | 1 | 0.865 | 0.65 | 0.423 | 0.724 | 0.736 | 0.726 | 0.731 | 0.656 |
| LU99A | 1 | 0.966 | 1.02 | 0.788 | 0.892 | 1.1 | 0.909 | 0.989 | 0.919 | 0.437 | 0.892 | 0.893 | 0.625 | 0.489 | 0.251 | 0.613 | 0.534 | 0.47 | 0.506 | 0.249 |
| LXF-289 | 1.03 | 1.03 | 1.02 | 0.902 | 0.991 | 1 | 0.934 | 0.954 | 0.953 | 0.69 | 0.963 | 1.02 | 0.93 | 0.901 | 0.315 | 0.84 | 0.785 | 0.794 | 0.806 | 0.537 |
| NCI-H23 | 1.13 | 1.21 | 1.11 | 0.798 | 0.962 | 1.1 | 0.846 | 0.956 | 0.782 | 0.231 | 0.999 | 1.1 | 0.817 | 0.594 | 0.378 | 0.582 | 0.503 | 0.515 | 0.441 | 0.341 |
| NCI-H322M | 0.928 | 0.924 | 1.01 | 0.804 | 0.912 | 1.11 | 0.885 | 1.03 | 1.13 | 0.704 | 0.904 | 0.924 | 0.497 | 0.663 | 0.624 | 0.807 | 0.924 | 0.873 | 0.841 | 0.728 |
| NCI-H358 | 1.09 | 0.915 | 0.963 | 0.754 | 0.933 | 1.34 | 0.832 | 0.984 | 0.767 | 0.401 | 0.839 | 0.748 | 0.493 | 0.397 | 0.207 | 0.759 | 0.559 | 0.541 | 0.39 | 0.264 |
| NCI-H441 | 1.14 | 1.24 | 1.14 | 0.867 | 0.995 | 1.22 | 0.816 | 0.882 | 0.704 | 0.425 | 1.02 | 1.05 | 0.611 | 0.61 | 0.438 | 0.894 | 0.646 | 0.618 | 0.452 | 0.379 |
| NCI-H460 | 1.05 | 1.01 | 1.05 | 0.823 | 0.971 | 1.03 | 0.984 | 1.01 | 1.04 | 0.889 | 1.08 | 1.09 | 1.04 | 1.08 | 0.836 | 0.911 | 0.919 | 0.889 | 0.883 | 0.298 |
| NCI-H520 | 1.04 | 1.13 | 1.12 | 0.969 | 0.886 | 1.16 | 0.835 | 0.941 | 1.1 | 0.371 | 1.13 | 1.07 | 0.789 | 0.524 | 0.292 | 0.882 | 0.737 | 0.795 | 0.566 | 0.544 |
| NCI-H596 | 1 | 0.994 | 1.11 | 0.85 | 0.964 | 1.09 | 0.978 | 1.05 | 1.17 | 0.842 | 1.02 | 0.889 | 0.872 | 1.06 | 1.02 | 1.01 | 1.1 | 0.522 | 0.972 | 1.01 |
| NCI-H647 | 1.01 | 1.01 | 1.02 | 0.84 | 0.85 | 0.972 | 0.818 | 1.07 | 0.867 | 0.48 | 0.918 | 0.988 | 0.513 | 0.407 | 0.172 | 1.24 | 1.08 | 1.13 | 0.882 | 0.215 |
| NCI-H650 | 0.973 | 0.885 | 0.956 | 0.984 | 0.906 | 1.03 | 0.823 | 0.946 | 0.488 | 0.557 | 0.953 | 1.03 | 0.844 | 0.46 | 0.403 | 0.707 | 0.522 | 0.688 | 0.373 | 0.382 |
| NCI-H661 | 1.05 | 1.03 | 0.998 | 0.903 | 0.985 | 0.963 | 0.858 | 0.983 | 0.961 | 0.7 | 1.01 | 0.972 | 0.964 | 0.935 | 0.439 | 0.968 | 0.889 | 1.05 | 0.988 | 0.825 |
